The source of these data is patent US20050227989A1, “Polycyclic thiazoles as potassium ion channel modulators” (ICAgen, Inc., priority 2004, published 2005).

The target in one experiment is hSK2 (Homo sapiens, UniProt Q9H2S1). The experiment is described as follows: 86Rb+ efflux assay for compound activity towards hSK channels. The class given is cell-based. Particulars: 86Rb+ efflux stimulated with calcium ionophore; drug 0.01 to 30 μM in EBSS; read-out: hSK2 Inhibitory Activity.
Take `O=C1CCCN1c1ccc(Nc2nc(-c3cnccn3)cs2)nc1` [1-[6-(4-Pyrazin-2-yl-thiazol-2-ylamino)-pyridin-3-yl]-pyrrolidin-2-one]: the IC50 is < 30 nM.
The same measure, in the same setting: the value for `O=C1CCCN1c1ccc(Nc2nc(-c3nccs3)cs2)nc1` [1-[6-([2,4′]Bithiazolyl-2′-ylamino)-pyridin-3-yl]-pyrrolidin-2-one] was 30 to 100 nM; that for `CN1CCN(c2ccc(Nc3nc(-c4cnccn4)cs3)nc2)C(=O)C1` [4-Methyl-1-[6-(4-pyrazin-2-yl-thiazol-2-ylamino)-pyridin-3-yl]-piperazin-2-one] was 1000 to 30000 nM; that for `CN1CCN(c2ccc(Nc3nc(-c4ccccn4)cs3)nc2)C(=O)C1` [4-Methyl-1-[6-(4-pyridin-2-yl-thiazol-2-ylamino)-pyridin-3-yl]-piperazin-2-one] was 1000 to 30000 nM.
Still for that read-out and setting: as for `COC(=O)c1ccc(Nc2nc(-c3ccccn3)cs2)nc1` [6-(4-Pyridin-2-yl-thiazol-2-ylamino)-nicotinic acid methyl ester], the figure is 1000 to 30000 nM; as for `c1ccc(-c2csc(Nc3nc4ccccc4[nH]3)n2)nc1` [(1H-Benzoimidazol-2-yl)-(4-pyridin-2-yl-thiazol-2-yl)-amine], 100 to 1000 nM.
Turning to `Cc1cnc(Nc2nc(-c3ccccn3)cs2)c(Br)c1` [(3-Bromo-5-methyl-pyridin-2-yl)-(4-pyridin-2-yl-thiazol-2-yl)-amine], the IC50 is 1000 to 30000 nM.
As to `Cc1cc(C)nc(Nc2nc(-c3ccccn3)cs2)c1` [(4,6-Dimethyl-pyridin-2-yl)-(4-pyridin-2-yl-thiazol-2-yl)-amine], the IC50 was in the range of 1000 to 30000 nM.
Consider `CC1CCN(c2ccc(Nc3nc(-c4ccccn4)cs3)nc2)CC1` [(4-Methyl-3,4,5,6-tetrahydro-2H-[1,3′]bipyridinyl-6′-yl)-(4-pyridin-2-yl-thiazol-2-yl)-amine], for which the IC50 lay in the range of 30 to 100 nM.
Still for that read-out and setting: the value for `Cc1ccnc(Nc2nc(-c3cnccn3)cs2)c1` [(4-Methyl-pyridin-2-yl)-(4-pyrazin-2-yl-thiazol-2-yl)-amine] was 30 to 100 nM; that for `Cc1ccnc(Nc2nc(-c3cc(C)ccn3)cs2)c1` [(4-Methyl-pyridin-2-yl)-[4-(4-methyl-pyridin-2-yl)-thiazol-2-yl]-amine] was 30 to 100 nM.
Still for that read-out and setting: the value for `FC(F)(F)c1ccc(Nc2nc(-c3ccccn3)cs2)nc1` [(4-Pyridin-2-yl-thiazol-2-yl)-(5-trifluoromethyl-pyridin-2-yl)-amine] was 1000 to 30000 nM; that for `c1ccc(-c2csc(Nc3nccs3)n2)nc1` [(4-Pyridin-2-yl-thiazol-2-yl)-thiazol-2-yl-amine] was 1000 to 30000 nM; that for `Brc1sc(Nc2ccccn2)nc1-c1ccccn1` [(5-Bromo-4-pyridin-2-yl-thiazol-2-yl)-pyridin-2-yl-amine] was 1000 to 30000 nM.
`Brc1ccc(Nc2nc(-c3ccccn3)cs2)nc1` [(5-Bromo-pyridin-2-yl)-(4-pyridin-2-yl-thiazol-2-yl)-amine]: the IC50 lay within 1000 to 30000 nM.
In the case of `Cc1ccnc(Nc2nc(-c3ccccn3)c(Cl)s2)c1` [(5-Chloro-4-pyridin-2-yl-thiazol-2-yl)-(4-methyl-pyridin-2-yl)-amine], the IC50 lay within 100 to 1000 nM.
As for `Fc1ccc(Nc2nc(-c3ccccn3)cs2)nc1` [(5-Fluoro-pyridin-2-yl)-(4-pyridin-2-yl-thiazol-2-yl)-amine], the IC50 was in the range of 1000 to 30000 nM.
Turning to `CCCCCCc1ccc(Nc2nc(-c3ccccn3)cs2)nc1` [(5-Hexyl-pyridin-2-yl)-(4-pyridin-2-yl-thiazol-2-yl)-amine], the IC50 lay within 1000 to 30000 nM.
As for `Cc1cc(I)cnc1Nc1nc(-c2ccccn2)cs1` [(5-Iodo-3-methyl-pyridin-2-yl)-(4-pyridin-2-yl-thiazol-2-yl)-amine], the IC50 lay in the range of 100 to 1000 nM.
Regarding `Cc1cc(Nc2nc(-c3ccccn3)cs2)ncc1I` [(5-Iodo-4-methyl-pyridin-2-yl)-(4-pyridin-2-yl-thiazol-2-yl)-amine], the IC50 fell in the range of 100 to 1000 nM.
The same measure, in the same setting: the value for `C=C(C)c1ccc(Nc2nc(-c3cnccn3)cs2)nc1` [(5-Isopropenyl-pyridin-2-yl)-(4-pyrazin-2-yl-thiazol-2-yl)-amine] was 100 to 1000 nM; that for `CC(C)c1ccc(Nc2nc(-c3cnccn3)cs2)nc1` [(5-Isopropyl-pyridin-2-yl)-(4-pyrazin-2-yl-thiazol-2-yl)-amine] was 1000 to 30000 nM.
As for `CC(C)c1ccc(Nc2nc(-c3ccccn3)cs2)nc1` [(5-Isopropyl-pyridin-2-yl)-(4-pyridin-2-yl-thiazol-2-yl)-amine], the IC50 was 30 to 100 nM.
Take `COc1sc(Nc2ccccn2)nc1-c1ccccn1` [(5-Methoxy-4-pyridin-2-yl-thiazol-2-yl)-pyridin-2-yl-amine]: the IC50 fell in the range of 1000 to 30000 nM.
On the same count and under the same terms, as for `Cc1sc(Nc2ccccn2)nc1-c1ccccn1` [(5-Methyl-4-pyridin-2-yl-thiazol-2-yl)-pyridin-2-yl-amine], the figure is < 30 nM; as for `Cc1ccc(Nc2nc(-c3cnccn3)cs2)nc1` [(5-Methyl-pyridin-2-yl)-(4-pyrazin-2-yl-thiazol-2-yl)-amine], 30 to 100 nM; as for `CSc1sc(Nc2ccccn2)nc1-c1ccccn1` [(5-Methylsulfanyl-4-pyridin-2-yl-thiazol-2-yl)-pyridin-2-yl-amine], 1000 to 30000 nM.
As for `c1ccc(-c2csc(Nc3ccc(N4CCOCC4)cn3)n2)nc1` [(5-Morpholin-4-yl-pyridin-2-yl)-(4-pyridin-2-yl-thiazol-2-yl)-amine], the IC50 lay in the range of 30 to 100 nM.
For the molecule `c1ccc(-c2ccc(Nc3nc(-c4ccccn4)cs3)nc2)cc1` [(5-Phenyl-pyridin-2-yl)-(4-pyridin-2-yl-thiazol-2-yl)-amine], the IC50 lay in the range of 1000 to 30000 nM.
In the case of `CC(C)(C)c1ccc(Nc2nc(-c3ccccn3)cs2)nc1` [(5-tert-Butyl-pyridin-2-yl)-(4-pyridin-2-yl-thiazol-2-yl)-amine], the IC50 was 1000 to 30000 nM.
Turning to `c1ccc(Nc2csc(Nc3ccccn3)n2)nc1` [N^2,N^4-Di-pyridin-2-yl-thiazole-2,4-diamine], the IC50 was in the range of 1000 to 30000 nM.
On the same count and under the same terms, the value for `Nc1ccc(Nc2nc(-c3nccs3)cs2)nc1` [N^2-[2,4′]Bithiazolyl-2′-yl-pyridine-2,5-diamine] was 30 to 100 nM; that for `c1ccc(Nc2nc(-c3ccccn3)cs2)nc1` [Pyridin-2-yl-(4-pyridin-2-yl-thiazol-2-yl)-amine] was < 30 nM.
Same read-out and setting: as for `c1ccc(Nc2nc(-c3cccs3)cs2)nc1` [Pyridin-2-yl-(4-thiophen-2-yl-thiazol-2-yl)-amine], the figure is 1000 to 30000 nM.
For `Cc1ccnc(Nc2nc(-c3nccs3)cs2)c1` [[2,4′]Bithiazolyl-2′-yl-(4-methyl-pyridin-2-yl)-amine], the IC50 fell in the range of 100 to 1000 nM.
In the case of `Brc1ccc(Nc2nc(-c3nccs3)cs2)nc1` [[2,4′]Bithiazolyl-2′-yl-(5-bromo-pyridin-2-yl)-amine], the IC50 was in the range of 1000 to 30000 nM.
Same read-out and setting: as for `Clc1ccc(Nc2nc(-c3nccs3)cs2)nc1` [[2,4′]Bithiazolyl-2′-yl-(5-chloro-pyridin-2-yl)-amine], the figure is 1000 to 30000 nM.
Turning to `C=C(C)c1ccc(Nc2nc(-c3nccs3)cs2)nc1` [[2,4′]Bithiazolyl-2′-yl-(5-isopropenyl-pyridin-2-yl)-amine], the IC50 fell in the range of 1000 to 30000 nM.
Still for that read-out and setting: the value for `CC(C)c1ccc(Nc2nc(-c3nccs3)cs2)nc1` [[2,4′]Bithiazolyl-2′-yl-(5-isopropyl-pyridin-2-yl)-amine] was 1000 to 30000 nM; that for `COc1ccc(Nc2nc(-c3nccs3)cs2)nc1` [[2,4′]Bithiazolyl-2′-yl-(5-methoxy-pyridin-2-yl)-amine] was 100 to 1000 nM.
On the same count and under the same terms, the value for `c1csc(-c2csc(Nc3ccc(N4CCOCC4)cn3)n2)n1` [[2,4′]Bithiazolyl-2′-yl-(5-morpholin-4-yl-pyridin-2-yl)-amine] was 100 to 1000 nM.
Same read-out and setting: the value for `O=[N+]([O-])c1ccc(Nc2nc(-c3nccs3)cs2)nc1` [[2,4′]Bithiazolyl-2′-yl-(5-nitro-pyridin-2-yl)-amine] was 1000 to 30000 nM.
In the case of `c1csc(-c2ccc(Nc3nc(-c4nccs4)cs3)nc2)c1` [[2,4′]Bithiazolyl-2′-yl-(5-thiophen-2-yl-pyridin-2-yl)-amine], the IC50 was in the range of 1000 to 30000 nM.
Regarding `CN1CCN(c2ccc(Nc3nc(-c4nccs4)cs3)nc2)CC1` [[2,4′]Bithiazolyl-2′-yl-[5-(4-methyl-piperazin-1-yl)-pyridin-2-yl]-amine], the IC50 was in the range of 1000 to 30000 nM.
`c1cncc(-c2ccc(Nc3nc(-c4nccs4)cs3)nc2)c1` [[3,3′]Bipyridinyl-6-yl-[2,4′]bithiazolyl-2′-yl-amine]: the IC50 lay in the range of 1000 to 30000 nM.
The same measure, in the same setting: as for `Cc1ccnc(Nc2nc(-c3c(C)nc4cc(C)ccn34)cs2)c1` [[4-(2,7-Dimethyl-imidazo[1,2-a]pyridin-3-yl)-thiazol-2-yl]-(4-methyl-pyridin-2-yl)-amine], the figure is 1000 to 30000 nM; as for `Cc1ccnc(Nc2nc(-c3c(C)nc4ccccn34)cs2)c1` [[4-(2-Methyl-imidazo[1,2-a]pyridin-3-yl)-thiazol-2-yl]-(4-methyl-pyridin-2-yl)-amine], 1000 to 30000 nM.
Consider `Cc1ccnc(Nc2nc(-c3c(C)nc4ncccn34)cs2)c1` [[4-(2-Methyl-imidazo[1,2-a]pyrimidin-3-yl)-thiazol-2-yl]-(4-methyl-pyridin-2-yl)-amine], for which the IC50 was 1000 to 30000 nM.
The same measure, in the same setting: the value for “[(4-Methyl-pyridin-2-yl)-(4-pyridin-2-yl-thiazol-2-yl)-amine]2 Fe(II) nH2ClO4 Complex” was < 30 nM; that for “[(4-Methyl-pyridin-2-yl)-(4-pyridin-2-yl-thiazol-2-yl)-amine]2 Zn(II) nHCl Complex” was < 30 nM.

Staying with this experiment, now noted: read-out: hSK2 Inhibitory Activity.
For the molecule `c1ccc(-c2csc(Nc3ncccn3)n2)nc1` [(4-Pyridin-2-yl-thiazol-2-yl)-pyrimidin-2-yl-amine], the IC50 was in the range of 1000 to 30000 nM.

The target of a further experiment is T1, recombinant human SK4 (hIK1 or hKCa4) channels (Homo sapiens, UniProt O15554+P0DP23).
T1 construct: host or cells: HEK 293
Test: not given
As to conditions: applied to the inside of SK4 channel-expressing membrane patches; cited from earlier work.
For the molecule `[Ba+2]` [Barium], the “activation of SK4 channels” value is “activated SK4 channels in a concentration-dependent manner”.
Regarding `[Cd]` [cadmium], the “activation of SK4 channels” value is listed as “activated SK4 channels in a concentration-dependent manner”.
Turning to `[Ca+2]` [calcium], the “activation of SK4 channels” value is reported as “activated SK4 channels in a concentration-dependent manner”.
With `[Co+2]` [cobalt], the “activation of SK4 channels” value is “did not activate”.
